Experimental data: US20230303572A1, “18-MC SALT FORMS” (Mind Medicine, Inc., priority 2022, published 2023)
“Also recorded” adds a separate entry of the source. Where a name gives a salt, the structure may show the parent alone.

Key:
Format in all cases: physicochemical
[1] = Relative thermodynamic stability of HCl salt forms (desolvation and form conversion data); details: for Form after desolvation: solvates of HCl salt
Method: Starting from HCl salt materials with different forms, a total of 100 polymorph screening experiments was performed using different crystallization methods including salt formation by liquid vapor diffusion/slurry at elevated temperature, evaporation at RT/high temperatures, slurry and reverse anti-solvent addition at different temperatures, slow/crash cooling, polymer induced crystallization and grinding. All the resulting solids were isolated for XRPD test, and new forms were further characterized by TGA, DSC, ^1H NMR and HPLC/ IC.
An additional polymorph screening was performed for 18-MC HCl salt.

[2] = Heating experiments and VT-XRPD (N2 drying, heating, cooling back): form change; details: for Form after heating: solid form by XRPD after heating, cells marked *, # have footnotes that are not shown; for form conversion, summary statement: after desolvation
Source text: (§1) For XRPD analysis, a PANalytical Empyrean and X′ Pert3 X-ray powder diffract meter was used.

[3] = Physical form stability on storage at RT, air drying or exposure to ambient conditions (XRPD); details: for form change after exposure to ambient conditions (XRPD): exposure to ambient conditions for ~30 min; for Form after treatment: metastable forms; for physical stability at ambient conditions: time not stated; for form change after air drying (XRPD): air drying for ~3 hours
Source text: as §1

[4] = after air drying or RT storage, duration not stated
[5] = after storage or heating experiments

In the case of `COCC[C@H]1CC2CN3CCc4c([nH]c5ccccc45)[C@](C(=O)OC)(C2)[C@H]13` [HCl salt Type B, 18-methoxycoronaridine], the Form after desolvation [1] is reported as “HCl salt Type A” and the Form after heating [2] is reported as “HCl salt Type A”.

With `COCC[C@H]1CC2CN3CCc4c([nH]c5ccccc45)[C@](C(=O)OC)(C2)[C@H]13` [HCl salt Type A, 18-methoxycoronaridine] the “thermodynamic stability among HCl salt forms” value ([1]; at RT) was “thermodynamically more stable than other anhydrates; also recorded: most thermodynamically stable form” and the “thermodynamic stability among hydrochloride salt forms” value ([1]; temperature not stated) was “most thermodynamically stable form”.

With `COCC[C@H]1CC2CN3CCc4c([nH]c5ccccc45)[C@](C(=O)OC)(C2)[C@H]13` [tosylate Type A, 18-methoxycoronaridine] the “form change after storage (XRPD)” value ([3]; storage at RT for ~7 days) was “peak of tosylate Type B was observed”, the “form change after storage (XRPD)” value ([3]; storage for 3 weeks) was “totally converted to tosylate Type B” and the “form change after N2 drying (VT-XRPD)” value ([2]; N2-drying for 30 min at 30° C.) was “no form change”. For the same compound, the “form change after heating (XRPD/VT-XRPD)” value ([2]; heating to 100° C.) was “a form change was observed, which was assigned as tosylate Type I”.

With `COCC[C@H]1CC2CN3CCc4c([nH]c5ccccc45)[C@](C(=O)OC)(C2)[C@H]13` [HCl salt Type R, 18-methoxycoronaridine] the Form after desolvation [1] was “HCl salt Type A”, the “form conversion, summary statement” value [2] was “converted to HCl salt Type A” and the “form change after heating (XRPD)” value ([2]; heating to 170° C. and cooling back to ambient condition) was “converted to HCl salt Type A”.

With `COCC[C@H]1CC2CN3CCc4c([nH]c5ccccc45)[C@](C(=O)OC)(C2)[C@H]13` [tosylate Type C, 18-methoxycoronaridine] the “form change after storage (XRPD)” value ([3]; storage at RT for about 2.5 month) was “form change to tosylate Type B” and the “form change after N2 drying (VT-XRPD)” value ([2]; N2-drying for 30 min at 30° C.) was “form change was observed for tosylate Type C. The new form was assigned as tosylate Type D”.

With `COCC[C@H]1CC2CN3CCc4c([nH]c5ccccc45)[C@](C(=O)OC)(C2)[C@H]13` [tosylate Type D, 18-methoxycoronaridine] the “form change after exposure to ambient conditions (XRPD)” value [3] was “converted to tosylate Type B”, the “form change after heating (XRPD/VT-XRPD)” value ([2]; heating to 100° C.) was “no form change” and the “form change after heating (VT-XRPD)” value ([2]; heating to 140° C. under N2 protection) was “an amorphous pattern was observed”.

For `COCC[C@H]1CC2CN3CCc4c([nH]c5ccccc45)[C@](C(=O)OC)(C2)[C@H]13` [HCl salt Type D, 18-methoxycoronaridine], the Form after treatment ([3]; Air drying) was “HCl salt Type A**” and the Form after heating [2] was “HCl salt Type A*”.

For `COCC[C@H]1CC2CN3CCc4c([nH]c5ccccc45)[C@](C(=O)OC)(C2)[C@H]13` [HCl salt Type C, 18-methoxycoronaridine], the Form after desolvation [1] was “HCl salt Type A” and the Form after heating [2] was “HCl salt Type A”.

For `COCC[C@H]1CC2CN3CCc4c([nH]c5ccccc45)[C@](C(=O)OC)(C2)[C@H]13` [HCl salt Type P, 18-methoxycoronaridine], the Form after desolvation [1] was “HCl salt Type A”, the “form change after N2 drying (VT-XRPD)” value ([2]; N2-drying for 20 min at 30° C.) was “no form change” and the “form conversion, summary statement” value [2] was “converted to HCl salt Type A”. For the same compound, the “form change after heating (XRPD)” value ([2]; heating to 80° C. and cooling back to RT) was “no obvious form change”, the “form change after heating (XRPD/VT-XRPD)” value ([2]; heating to 100° C.) was “form change to HCl salt Type A” and the “form change after heating (XRPD)” value ([2]; heating to 150° C.) was “converted to HCl salt Type A”. For the same compound, the “form change after heating (VT-XRPD)” value ([2]; heating to 210° C. under N2 protection) was “amorphous sample was observed”.

In the case of `COCC[C@H]1CC2CN3CCc4c([nH]c5ccccc45)[C@](C(=O)OC)(C2)[C@H]13` [HCl salt Type T, 18-methoxycoronaridine], the Form after desolvation [1] is reported as “HCl salt Type A”, the “form conversion, summary statement” value [2] is reported as “converted to HCl salt Type A” and the “form change after heating (XRPD)” value ([2]; heating to 150° C.) is reported as “most diffraction peaks were consistent with HCl salt Type A”.

For `COCC[C@H]1CC2CN3CCc4c([nH]c5ccccc45)[C@](C(=O)OC)(C2)[C@H]13` [sulfate Type B, 18-methoxycoronaridine], the “form conversion, summary statement” value [3, 4] was “converted to sulfate Type E” and the “form change after storage (XRPD)” value ([3]; storage at RT in a sealed vial for ~12 days) was “form change to sulfate Type E”.

For `COCC[C@H]1CC2CN3CCc4c([nH]c5ccccc45)[C@](C(=O)OC)(C2)[C@H]13` [HCl salt Type K, 18-methoxycoronaridine], the “Form change after treatment” value ([3]; Exposure to ambient conditions (~50%RH), XRPD form) was “HCl salt Type F^#”.

For `COCC[C@H]1CC2CN3CCc4c([nH]c5ccccc45)[C@](C(=O)OC)(C2)[C@H]13` [HCl salt Type L, 18-methoxycoronaridine], the Form after treatment ([3]; RT storage) was “HCl salt Type A^#”, the “form conversion, summary statement” value [3, 4] was “converted to HCl salt Type A” and the Form after heating [2] was “HCl salt Type A”.

In the case of `COCC[C@H]1CC2CN3CCc4c([nH]c5ccccc45)[C@](C(=O)OC)(C2)[C@H]13` [HCl salt Type I, 18-methoxycoronaridine], the Form after desolvation [1] is reported as “HCl salt Type A”.

For `COCC[C@H]1CC2CN3CCc4c([nH]c5ccccc45)[C@](C(=O)OC)(C2)[C@H]13` [HCl salt Type E, 18-methoxycoronaridine], the Form after treatment ([3]; Air drying) was “HCl salt Type A**” and the Form after heating [2] was “HCl salt Type A**”.

In the case of `COCC[C@H]1CC2CN3CCc4c([nH]c5ccccc45)[C@](C(=O)OC)(C2)[C@H]13` [HCl salt Type G, 18-methoxycoronaridine], the Form after treatment ([3]; RT storage) is reported as “HCl salt Type A^#” and the Form after heating [2] is reported as “HCl salt Type A**”.

In the case of `COCC[C@H]1CC2CN3CCc4c([nH]c5ccccc45)[C@](C(=O)OC)(C2)[C@H]13` [sulfate Type F, 18-methoxycoronaridine], the “physical stability at ambient conditions” value [3] is reported as “not physically stable”, the “form change after exposure to ambient conditions (XRPD)” value [3] is reported as “converted back to sulfate Type D” and the “form change after heating (XRPD/VT-XRPD)” value ([2]; heating to 100° C.) is reported as “remained sulfate Type F”.

In the case of `COCC[C@H]1CC2CN3CCc4c([nH]c5ccccc45)[C@](C(=O)OC)(C2)[C@H]13` [HCl salt Type V, 18-methoxycoronaridine], the Form after treatment ([3]; Air drying) is reported as “HCl salt Type A**”, the “form conversion, summary statement” value [3, 4] is reported as “converted to HCl salt Type A” and the “form change after air drying (XRPD)” value [3] is reported as “converted to HCl salt Type A completely”.

For `COCC[C@H]1CC2CN3CCc4c([nH]c5ccccc45)[C@](C(=O)OC)(C2)[C@H]13` [HCl salt Type J, 18-methoxycoronaridine], the Form after treatment ([3]; RT storage) was “HCl salt Type F^#” and the Form after heating [2] was “HCl salt Type F*”.

For `COCC[C@H]1CC2CN3CCc4c([nH]c5ccccc45)[C@](C(=O)OC)(C2)[C@H]13` [mesylate Type C, 18-methoxycoronaridine], the “physical stability at ambient conditions” value [3] was “not found to be physically stable at ambient conditions and easily converted to gels/oils” and the “Speculated form (physical stability)” value ([3]; the solid turn to gel-like after air drying at RT in a few minutes) was “Metastable*”.

In the case of `COCC[C@H]1CC2CN3CCc4c([nH]c5ccccc45)[C@](C(=O)OC)(C2)[C@H]13` [HCl salt Type A+O, 18-methoxycoronaridine], the “form change after storage (XRPD)” value ([3]; storage at RT for ~19 days) is reported as “converted to HCl salt Type A completely”.

For `COCC[C@H]1CC2CN3CCc4c([nH]c5ccccc45)[C@](C(=O)OC)(C2)[C@H]13` [HCl salt Type U, 18-methoxycoronaridine], the Form after desolvation [1] was “HCl salt Type A”, the “form conversion, summary statement” value [2] was “converted to HCl salt Type A” and the “form change after heating (XRPD/VT-XRPD)” value ([2]; heating to 120° C.) was “an extra peak representative of HCl salt Type A was observed”. The “form change after heating (XRPD)” value ([2]; heating to 150° C.) was “most diffraction peaks were consistent with HCl salt Type A”.

With `COCC[C@H]1CC2CN3CCc4c([nH]c5ccccc45)[C@](C(=O)OC)(C2)[C@H]13` [HBr salt Type C, 18-methoxycoronaridine] the “form conversion, summary statement” value [3, 5] was “could convert to HBr salt Type A”, the “form change after heating (XRPD/VT-XRPD)” value ([2]; heating to 100° C.) was “peak of HBr salt Type A was observed” and the “form change after heating (XRPD)” value ([2]; heating to 150° C.) was “most diffraction peaks were consistent with HBr salt Type A”.

For `COCC[C@H]1CC2CN3CCc4c([nH]c5ccccc45)[C@](C(=O)OC)(C2)[C@H]13` [HCl salt Type A+L, 18-methoxycoronaridine], the “form change after storage (XRPD)” value ([3]; storage at RT for ~22 days) was “converted to HCl salt Type A completely”.

With `COCC[C@H]1CC2CN3CCc4c([nH]c5ccccc45)[C@](C(=O)OC)(C2)[C@H]13` [HCl salt Type A+N, 18-methoxycoronaridine] the “form change after storage (XRPD)” value ([3]; storage at RT for ~21 days) was “converted to HCl salt Type A completely”.

For `COCC[C@H]1CC2CN3CCc4c([nH]c5ccccc45)[C@](C(=O)OC)(C2)[C@H]13` [tosylate Type I, 18-methoxycoronaridine], the “form change after open dish (XRPD)” value ([3]; open dish for ~3 hrs) was “converted back to tosylate Type A with an extra peak of tosylate Type B”.

With `COCC[C@H]1CC2CN3CCc4c([nH]c5ccccc45)[C@](C(=O)OC)(C2)[C@H]13` [tosylate Type H, 18-methoxycoronaridine] the “form change after air drying (XRPD)” value [3] was “form change to tosylate Type A” and the “Speculated form (physical stability)” value ([3]; form characterization summary of tosylate) was “Metastable”.

With `COCC[C@H]1CC2CN3CCc4c([nH]c5ccccc45)[C@](C(=O)OC)(C2)[C@H]13` [HBr salt Type D, 18-methoxycoronaridine] the “form conversion, summary statement” value [3, 5] was “could convert to HBr salt Type A”, the “form change after heating (XRPD/VT-XRPD)” value ([2]; heating to 100° C.) was “extra peak of HBr salt Type A was observed” and the “form change after heating (XRPD)” value ([2]; heating to 150° C.) was “most diffraction peaks of the sample were consistent with HBr salt Type A”.

In the case of `COCC[C@H]1CC2CN3CCc4c([nH]c5ccccc45)[C@](C(=O)OC)(C2)[C@H]13` [HCl salt Type Q, 18-methoxycoronaridine], the Form after desolvation [1] is reported as “HCl salt Type A+freebase Type A”, the “form change after N2 drying (VT-XRPD)” value ([2]; N2-drying for 20 min at 30° C.) is reported as “no form change” and the “form conversion, summary statement” value [2] is reported as “converted to HCl salt Type A”. For the same compound, the “form change after heating (VT-XRPD)” value ([2]; heating to 100° C., 130° C., 160° C. and cooling back to 30° C. under N2 protection) was “form change to a mixture of HCl salt Type A and freebase Type A”.
